Data as given in patent EP0409499A2, “Pharmaceutical compositions” (BRITISH TECHNOLOGY GROUP LIMITED, priority 1989, dated 1991).

Tests used:
growing rats = assay: Cardioprotective effect against the toxicity of doxorubicin (heart rate and cardiac output in rats); type: in vivo; details: relative to saline + saline control
Procedure: The following compounds were selected to be tested for their cardioprotetive effect against the toxicity of doxorubicin. The compounds tested were: 1,3-bis(3,5-dioxopiperazin-1-yl)-propane 1,2-bis(2-methyl-3,5-dioxopiperazin-1-yl)-ethane 1,2-bis(3,5-dioxopiperazin-1-yl)-butane.
Groups of growing rats were injected intra-peritoneally (i.p.) with 100 mg/kg or 400 mg/kg body weight of the compound. After 1 hour, doxorubicin solution was injected intravenously (i.v.) at a concentration of 4 mg/kg body weight. Other groups of rats were injected with saline (i.p.) followed after 1 hour by saline (i.v.) or with saline (i.p.) followed after 1 hour by doxorubicin solution (i.v.) as controls. The cardiotoxicity of doxorubicin and the protection supplied by the compounds was assessed by measuring the heart rate and cardiac output relative to the saline + saline control. Cardiac output was measured by injecting ^99mTc into the heart and measuring the rate at which the isotope was cleared from the heart. Heart rate was measured in the standard manner.
The results are shown in the Table below from which it will be seen that each of the compounds results in an improvement in cardiac output and heart rate as compared with the depressed values which occur when only doxorubicin is used. TABLE

[1] = result in words, Herman et al, Res. Commun. Chem. Pathol. Pharmacol. 1985, 48, 39; cited from earlier work
[2] = result in words, Herman et al, Adv. Pharmacol. Chemother. 1982, 19, 249; cited from earlier work
[3] = saline i.p., 1 hour later doxorubicin 4 mg/kg i.v. alone
[4] = compound 100 mg/kg i.p., 1 hour later doxorubicin 4 mg/kg i.v.
[5] = compound 100 mg/kg i.p., 1 hour later doxorubicin 4 mg/kg i.v., 99mTc clearance from the heart

Compound | Relative Heart Rate (growing rats; [4]) | Relative Cardiac Output (growing rats; [5]) | further results
COc1cccc2c1C(=O)c1c(O)c3c(c(O)c1C2=O)C[C@@](O)(C(=O)CO)C[C@@H]3O[C@H]1C[C@H](N)[C@H](O)[C@H](C)O1 [doxorubicin, reference compound] |  |  | Relative Cardiac Output (growing rats; [3]): 0.41 ± 0.04; Relative Heart Rate (growing rats; [3]): 0.65 ± 0.19
O=C1CN(CCN2CC(=O)N(CN3CCOCC3)C(=O)C2)CC(=O)N1CN1CCOCC1 [bimolane] |  |  | protective effect against acute daunorubicin toxicity [1]: give protection against the lethal effects of daunorubicin
CC1C(=O)NC(=O)CN1CCN1CC(=O)NC(=O)C1C (stereo not drawn) [1,2-bis(2-methyl-3,5-dioxopiperazin-1-yl)-ethane] | 0.99 ± 0.03 | 0.62 ± 0.05 | 
CCC(CN1CC(=O)NC(=O)C1)N1CC(=O)NC(=O)C1 (racemic) [1,2-bis(3,5-dioxopiperazin-1-yl)-butane, dl-1,2-bis(3,5-dioxopiperazin-1-yl)-butane] | 0.98 ± 0.03 | 0.70 ± 0.05 | Relative Heart Rate (growing rats; compound 400 mg/kg i.p., 1 hour later doxorubicin 4 mg/kg i.v.): 0.92 ± 0.04; Relative Cardiac Output (growing rats; compound 400 mg/kg i.p., 1 hour later doxorubicin 4 mg/kg i.v., 99mTc clearance from the heart): 0.67 ± 0.05
O=C1CN(CCCN2CC(=O)NC(=O)C2)CC(=O)N1 [1,3-bis(3,5-dioxopiperazin-1-yl)-propane] | 0.81 ± 0.12 | 0.56 ± 0.06 | 
CC(CN1CC(=O)NC(=O)C1)N1CC(=O)NC(=O)C1 (stereo not drawn) [ICRF 159] |  |  | reducing high dose daunorubicin toxicity versus doxorubicin toxicity [2]: consistently more effective in reducing high dose daunorubicin toxicity than doxorubicin toxicity
